Data taken from patent US20190185479A1, “BICYCLIC NITROGENATED HETEROCYCLIC COMPOUND” (MITSUBISHI TANABE PHARMA CORPORATION, priority 2016, published 2019).

Experiments:
Assay type in all cases: biochemical
hPDE4D = biological target: T1, hPDE4D (Homo sapiens, UniProt Q08499); assay: PDE4 inhibition assay (IC50), Experimental Example 3; details: for IC50: hPDE4D, read-out: PDE inhibition assay IC50, PDE4
T1 construct: purchased SB Drug Discovery
Procedure: (§1) PDE7 inhibitory assay was carried out by reacting the mixture of a compound, hPDE7B, and cAMP, and measuring the residual cAMP by a detection method using LANCE (registered trademark) Ultra cAMP Detection Kit (ParkinElmer). The compound was dissolved in DMSO, and diluted so that the concentration would become 50 times of the final concentration. The hPDE7B and cAMP were diluted with an assay buffer (50 mmol/L Tris-HCl, 1 mmol/L MgCl2, 0.1% BSA, 0.5 mmol/L DTT, pH7.5) so that the hPDE7B would have an appropriate enzyme activity and the concentration of cAMP would become 6 nmol/L. To a 96 well plate were added the compound (2 μL) (DMSO final concentration: 2%), hPDE7B (48 μL), and cAMP (50 μL) (concentration at the reaction: 3 nmol/L), and the resulting mixture was reacted at room temperature for 60 minutes. The reaction solution (20 μL) was subjected to a TR-FRET method according to the protocol specified by the kit to measure the concentration of the residual cAMP. In the assay, to a tracer solution specified by the kit was added 0.5 mmol/L of 3-isobutyl-1-methylxanthine (IBMX, nonselective PDE inhibitor) in order to stop the PDE enzyme reaction after the completion of reaction until the measurement.
(§2) The prediction of PDE7 selectivity was evaluated by comparing each IC50 value of a compound against PDE4, 8, and 10 with the IC50 value of said compound against PDE7B.
(§3) hPDE4D, hPDE8B, and hPDE10A were prepared by the same method as [Method for preparing samples 2].
(§4) PDE4, 8, and 10 inhibitory assays were carried out by the same method as [Assay procedure 1].
(§5) The reaction without a compound wad defined as “0% inhibition”, the reaction without each PDE was defined as “100% inhibition”, and the calculation of IC50 value was carried out by the same method as <Method for data calculation 1>.

Human PDE7B (hPDE7B) = biological target: T2, Human PDE7B (hPDE7B) (Homo sapiens, UniProt Q9NP56); assay: Measurement of PDE7 inhibitory activity (Experimental Example 1; residual cAMP, LANCE Ultra cAMP TR-FRET); details: cAMP 3 nmol/L, room temperature 60 minutes
T2 construct: made in house; host or cells: COS-7 cells
T2 sequence (Q9NP56 whole entry): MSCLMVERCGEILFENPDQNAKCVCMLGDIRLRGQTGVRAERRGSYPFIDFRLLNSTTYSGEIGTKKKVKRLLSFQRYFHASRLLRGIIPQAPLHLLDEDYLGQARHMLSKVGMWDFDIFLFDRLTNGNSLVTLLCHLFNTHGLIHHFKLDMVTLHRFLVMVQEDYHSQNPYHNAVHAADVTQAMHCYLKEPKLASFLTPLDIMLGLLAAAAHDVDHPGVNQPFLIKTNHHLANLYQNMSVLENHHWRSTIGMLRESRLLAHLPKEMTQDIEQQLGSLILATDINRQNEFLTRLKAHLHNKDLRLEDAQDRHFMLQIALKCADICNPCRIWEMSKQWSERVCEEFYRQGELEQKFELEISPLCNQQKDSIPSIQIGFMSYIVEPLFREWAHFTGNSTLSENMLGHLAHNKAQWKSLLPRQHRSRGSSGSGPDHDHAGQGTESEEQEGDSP
Procedure, shortened: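 hPDE7B from transfected COS-7 cells reacted with 3 nmol/L cAMP (final) and compound (2% DMSO) in 50 mmol/L Tris-HCl pH 7.5, 1 mmol/L MgCl2, 0.1% BSA, 0.5 mmol/L DTT, 60 min at room temperature. Reaction stopped with IBMX; residual cAMP measured by TR-FRET. Inhibition scaled between no-compound and no-enzyme controls.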

hPDE8B = biological target: T3, hPDE8B (Homo sapiens, UniProt O95263); assay: PDE8 inhibition assay (IC50), Experimental Example 3; details: for IC50: hPDE8B, read-out: PDE inhibition assay IC50, PDE8
T3 construct: purchased SB Drug Discovery
T3 sequence (O95263 whole entry): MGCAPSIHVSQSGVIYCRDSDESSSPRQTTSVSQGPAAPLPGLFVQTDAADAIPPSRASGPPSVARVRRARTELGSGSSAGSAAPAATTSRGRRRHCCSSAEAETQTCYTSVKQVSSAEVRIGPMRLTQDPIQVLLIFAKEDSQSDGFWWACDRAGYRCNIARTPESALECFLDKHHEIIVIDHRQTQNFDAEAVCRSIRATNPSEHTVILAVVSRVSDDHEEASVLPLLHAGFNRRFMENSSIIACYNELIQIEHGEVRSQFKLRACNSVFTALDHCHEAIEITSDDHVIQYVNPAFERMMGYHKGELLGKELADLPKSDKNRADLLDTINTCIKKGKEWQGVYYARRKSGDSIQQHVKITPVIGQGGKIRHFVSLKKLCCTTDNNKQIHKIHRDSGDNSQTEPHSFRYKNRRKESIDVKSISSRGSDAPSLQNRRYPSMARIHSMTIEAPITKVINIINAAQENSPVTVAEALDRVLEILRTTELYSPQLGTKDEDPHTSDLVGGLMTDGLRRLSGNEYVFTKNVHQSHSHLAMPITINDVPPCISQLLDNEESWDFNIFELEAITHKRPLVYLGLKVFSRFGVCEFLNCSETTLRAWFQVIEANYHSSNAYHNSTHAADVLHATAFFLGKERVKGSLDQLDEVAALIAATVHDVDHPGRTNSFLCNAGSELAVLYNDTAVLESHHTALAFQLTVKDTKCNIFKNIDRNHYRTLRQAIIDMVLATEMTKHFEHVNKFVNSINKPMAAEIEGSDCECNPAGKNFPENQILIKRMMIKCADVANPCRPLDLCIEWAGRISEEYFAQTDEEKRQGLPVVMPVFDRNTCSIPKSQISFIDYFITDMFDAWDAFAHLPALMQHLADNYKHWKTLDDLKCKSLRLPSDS
Procedure: as §1, §2, §3, §4, §5

hPDE10A = hPDE10A (Homo sapiens, UniProt Q9Y233); assay: PDE10 inhibition assay (IC50), Experimental Example 3; details: for inhibition at 100 µM: at 100 μmol/L; for inhibition at 100 µM / inhibition at 10 µM: read-out: inhibition rate (%) at prescribed concentration, PDE10; for IC50: hPDE10A, read-out: PDE inhibition assay IC50, PDE10; for inhibition at 10 µM: at 10 μmol/L
Chain of hPDE10A (Q9Y233 290-1055 limits assumed): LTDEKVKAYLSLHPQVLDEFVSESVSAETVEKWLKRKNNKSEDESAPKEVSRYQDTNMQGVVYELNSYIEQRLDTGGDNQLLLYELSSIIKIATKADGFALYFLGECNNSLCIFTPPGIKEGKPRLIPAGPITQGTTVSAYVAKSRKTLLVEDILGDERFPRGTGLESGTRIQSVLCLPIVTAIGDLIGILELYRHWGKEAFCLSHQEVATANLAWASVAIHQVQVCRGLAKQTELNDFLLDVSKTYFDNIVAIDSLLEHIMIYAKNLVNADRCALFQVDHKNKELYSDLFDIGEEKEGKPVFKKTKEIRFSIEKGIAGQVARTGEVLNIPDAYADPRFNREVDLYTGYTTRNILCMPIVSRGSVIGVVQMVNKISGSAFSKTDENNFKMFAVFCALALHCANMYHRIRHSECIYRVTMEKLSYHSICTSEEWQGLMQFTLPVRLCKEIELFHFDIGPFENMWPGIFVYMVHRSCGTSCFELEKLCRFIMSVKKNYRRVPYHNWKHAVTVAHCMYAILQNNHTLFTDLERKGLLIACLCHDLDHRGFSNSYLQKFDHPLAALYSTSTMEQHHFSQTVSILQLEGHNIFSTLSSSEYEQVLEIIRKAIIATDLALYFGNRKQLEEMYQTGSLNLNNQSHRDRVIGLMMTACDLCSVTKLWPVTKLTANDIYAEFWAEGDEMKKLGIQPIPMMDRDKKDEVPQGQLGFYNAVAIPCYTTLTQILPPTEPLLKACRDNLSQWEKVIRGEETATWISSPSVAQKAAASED
Procedure: as §1, §2, §3, §4, §5

T1 sequence (Q08499 whole entry): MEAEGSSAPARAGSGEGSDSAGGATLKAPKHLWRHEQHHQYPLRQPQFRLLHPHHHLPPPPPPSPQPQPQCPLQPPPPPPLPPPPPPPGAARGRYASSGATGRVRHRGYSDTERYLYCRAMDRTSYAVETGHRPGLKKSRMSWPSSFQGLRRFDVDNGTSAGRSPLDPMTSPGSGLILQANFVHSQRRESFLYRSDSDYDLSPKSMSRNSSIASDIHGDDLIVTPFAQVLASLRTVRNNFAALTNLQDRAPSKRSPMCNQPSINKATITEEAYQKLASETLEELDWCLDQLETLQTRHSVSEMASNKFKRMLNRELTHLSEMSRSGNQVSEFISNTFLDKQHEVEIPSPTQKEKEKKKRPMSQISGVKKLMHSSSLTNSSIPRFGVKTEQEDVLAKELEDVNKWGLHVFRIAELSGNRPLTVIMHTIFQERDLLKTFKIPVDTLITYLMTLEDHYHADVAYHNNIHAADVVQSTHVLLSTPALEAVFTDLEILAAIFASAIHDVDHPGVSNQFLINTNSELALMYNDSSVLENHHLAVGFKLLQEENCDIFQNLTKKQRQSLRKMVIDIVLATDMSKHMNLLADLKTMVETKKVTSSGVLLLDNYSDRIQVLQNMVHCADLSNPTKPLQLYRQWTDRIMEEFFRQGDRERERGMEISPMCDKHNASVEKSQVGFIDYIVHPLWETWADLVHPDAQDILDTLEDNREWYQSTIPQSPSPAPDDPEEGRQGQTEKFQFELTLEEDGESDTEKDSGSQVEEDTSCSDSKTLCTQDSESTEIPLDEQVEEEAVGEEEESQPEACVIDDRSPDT

Structure (SMILES) | IC50 (hPDE4D) [nM] | IC50 (Human PDE7B (hPDE7B)) [nM] | IC50 (hPDE8B) [nM] | also measured
CC1CC(C)CN(c2nnc3c(N)ncc(C#N)n23)C1 (racemic) [Example 54, 8-amino-3-(3,5-dimethylpiperidin-1-yl) [1,2,4]triazolo[4,3-a]pyrazine-5-carbonitrile] | 7860 | 40 | 3350 | inhibition at 100 µM (hPDE10A): 30%
CC1CCN(c2nnc3c(N)nccn23)C(C)C1 (racemic) [Example 61, 3-(2,4-dimethylpiperidin-1-yl) [1,2,4]triazolo[4,3-a]pyrazin-8-amine] | 5800 | 60 | 18400 | IC50 (hPDE10A): 16300 nM
CC1CCN(c2nnc3c(N)nccn23)C(C)C1 (racemic) [Example 62, 3-(2,4-dimethylpiperidin-1-yl) [1,2,4]triazolo[4,3-a]pyrazin-8-amine] | 4300 | 40 | 21300 | IC50 (hPDE10A): 7100 nM
Nc1ncnn2c(C3CCCC(F)(F)C3)nnc12 (racemic) [Example 82, 3-(3,3-difluorocyclohexyl) [1,2,4]triazolo[3,4-f][1,2,4]triazin-8-amine] | 6210 | 40 | 2490 | IC50 (hPDE10A): 17900 nM
CC1CCC(C(F)(F)F)CC1c1nnc2c(N)ncnn12 (racemic) [Example 83, 3-[2-methyl-5-(trifluoromethyl)cyclohexyl][1,2,4]triazolo[3,4-f][1,2,4]triazin-8-amine] |  | < 10 | 1330 | inhibition at 1 µM (hPDE4D; at 1 μmol/L, read-out: inhibition rate (%) at prescribed concentration, PDE4): 53%; IC50 (hPDE10A): 3040 nM
C[C@H]1C[C@H](n2nnc3c(N)ncnc32)CC(C)(C)C1 (racemic) [Example 109, 3-(trans-3,3,5-trimethylcyclohexyl)-3H-[1,2,3]triazolo[4,5-d]pyrimidin-7-amine] | 99200 | 40 | 12900 | inhibition at 100 µM (hPDE10A): 24%
CC1(C)CCCC(n2nnc3c(N)ncnc32)C1 (racemic) [Example 128, 3-(3,3-dimethylcyclohexyl)-3H-[1,2,3]triazolo[4,5-d]pyrimidin-7-amine] | 4530 | 20 | 1310 | inhibition at 10 µM (hPDE10A): 43%
CC1CCC(F)(F)CC1c1nnc2c(N)ncnn12 (single isomer, unassigned) [Example 246, 3-(cis-5,5-difluoro-2-methylcyclohexyl) [1,2,4]triazolo[3,4-f][1,2,4]triazin-8-amine] | 2300 | 3 | 4400 | 
CSc1nc(N)c2nnn(C3CCCCC3)c2n1 [Example 5, 3-cyclohexyl-5-(methylsulfanyl)-3H-[1,2,3]triazolo[4,5-d]pyrimidin-7-amine] | 190 | 30 |  | IC50 (hPDE10A): 2760 nM
CC1(n2nnc3c(N)ncnc32)CCCCC1 [Example 7] |  | 560 |  | inhibition at 10 µM (hPDE8B; at 10 μmol/L, read-out: inhibition rate (%) at prescribed concentration, PDE8): 50%
CC(C)(C)OC(=O)N1CCC[C@H](n2nnc3c(N)ncnc32)C1 [Example 13, Tert-butyl (3S)-3-(7-amino-3H-[1,2,3]triazolo[4,5-d]pyrimidin-3-yl)piperidine-1-carboxylate] |  | 160 | 220 | 
Nc1ncnc2c1nnn2[C@H]1CCCC(F)(F)C1 [Example 89] |  | 160 | 8600 | inhibition at 10 µM (hPDE10A): 17%
COc1nc(N)c2nnn(C3CCCCC3)c2n1 [Example 92, 3-cyclohexyl-5-methoxy-3H-[1,2,3]triazolo[4,5-d]pyrimidin-7-amine] | 640 | < 10 |  | IC50 (hPDE10A): 2970 nM
CC[C@H]1CC[C@H](n2nnc3c(N)ncnc32)CC1 [Example 100] |  | 120 | 1800 | 
C=C(C)[C@@H]1CC[C@@H](C)[C@@H](n2nnc3c(N)ncnc32)C1 [Example 106, 3-[(1S,2R,5R)-2-methyl-5-(prop-1-en-2-yl)cyclohexyl]-3H-[1,2,3]triazolo[4,5-d]pyrimidin-7-amine] |  | 300 | 4380 | 
Nc1ncnc2c1nnn2C1CCCC(CF)C1 (stereo not shown) [Example 118] | 4250 | 80 |  | inhibition at 1 µM (hPDE8B; at 1 μmol/L, read-out: inhibition rate (%) at prescribed concentration, PDE8): 55%
Nc1ncnc2c1nnn2C1CCCC(COc2ccccc2)C1 (stereo not shown) [Example 125] |  | 210 | 1110 | 
Nc1ncnc2c1nnn2C1CCCC(COCc2ccccc2)C1 (stereo not shown) [Example 126] |  | 280 | 2650 | 
CC(C)[C@@H]1CC[C@@H](C)[C@@H](n2nnc3c(N)ncnc32)C1 [Example 132, 3-[(1S,2R,5R)-2-methyl-5-(propan-2-yl)cyclohexyl]-3H-[1,2,3]triazolo[4,5-d]pyrimidin-7-amine] |  | 670 |  | 
CC1CC(c2nnc3c(N)nccn23)C1 (stereo not shown) [Example 133, 3-(3-methylcyclobutyl)-[1,2,4]triazolo[4,3-a]pyrazin-8-amine] |  | 160 |  | 

Structure (SMILES) | IC50 (hPDE4D) [nM] | IC50 (Human PDE7B (hPDE7B)) [nM] | IC50 (hPDE8B) [nM] | also measured
CC(C)[C@H]1CC[C@H](C)[C@H](n2nnc3c(N)ncnc32)C1 [Example 134, 3-[(1R,2S,5S)-2-methyl-5-(propan-2-yl)cyclohexyl]-3H-[1,2,3]triazolo[4,5-d]pyrimidin-7-amine] |  | 330 |  | 
Nc1ncnc2c1nnn2[C@@H]1CCCN(c2ccccc2)C1 [Example 136, 3-[(3R)-1-phenylpiperidin-3-yl]-3H-[1,2,3]triazolo[4,5-d]pyrimidin-7-amine] |  | 680 |  | 
Nc1ncnc2c1nnn2[C@H]1CCCN(c2ccccc2)C1 [Example 137, 3-[(3S)-1-phenylpiperidin-3-yl]-3H-[1,2,3]triazolo[4,5-d]pyrimidin-7-amine] |  | 190 |  | inhibition at 0.1 µM (hPDE8B; at 0.1 μmol/L, read-out: inhibition rate (%) at prescribed concentration, PDE8): 58%
Nc1ncnc2c1nnn2[C@H]1CCCN(Cc2ccccc2)C1 [Example 138, 3-[(3S)-1-benzylpiperidin-3-yl]-3H-[1,2,3]triazolo[4,5-d]pyrimidin-7-amine] |  | 340 |  | 
Nc1ncnc2c1nnn2-c1cccc(OCc2ccccc2)c1 [Example 139, 3-[3-(benzyloxy)phenyl]-3H-[1,2,3]triazolo[4,5-d]pyrimidin-7-amine] |  | 90 |  | 
Nc1nccn2c(C3CCCC(C(F)(F)F)C3)nnc12 (stereo not shown) [Example 147] |  | 700 |  | 
Nc1nccn2c(C3CCC(F)(F)CC3)nnc12 [Example 150] |  | 130 |  | 
CC1CC(c2nnc3c(N)nccn23)CC(F)(F)C1 (stereo not shown) [Example 154] |  | 110 |  | 
Nc1nccn2c(C3CC(C(F)(F)F)CC(F)(F)C3)nnc12 (stereo not shown) [Example 157] |  | 920 |  | 
Nc1nccn2c(C3CCC4CC4C3)nnc12 (stereo not shown) [Example 158, 3-(bicyclo[4.1.0]hept-3-yl) [1,2,4]triazolo[4,3-a]pyrazin-8-amine] |  | 70 |  | 
Nc1nccn2c([C@@H]3C[C@@H]4CC[C@H]3C4)nnc12 [Example 162] |  | 170 |  | 
Nc1nccn2c(CC3CCCCC3)nnc12 [Example 165] |  | 360 |  | 
Nc1nccn2c(C3CCCCO3)nnc12 (stereo not shown) [Example 168] |  | 440 |  | 
Nc1nccn2c(-c3ccccc3)nnc12 [Example 170] |  | 270 |  | 
Nc1ncnc2c1ncn2C1CCCCC1 [Example 182] | 3420 | 410 |  | IC50 (hPDE10A): 470 nM
Nc1ncnc2c1c(C(F)(F)F)nn2C1CCCCC1 [Example 185] | 1840 | 560 |  | IC50 (hPDE10A): 360 nM
Cn1nc(C2CCCCC2)c2ncnc(N)c21 [Example 187, 3-cyclohexyl-1-methyl-1H-pyrazolo[4,3-d]pyrimidin-7-amine] |  | 580 |  | inhibition at 10 µM (hPDE4D; at 10 μmol/L, read-out: inhibition rate (%) at prescribed concentration, PDE4): 38%; IC50 (hPDE10A): 2720 nM
Nc1nccn2c([C@@H]3CCCC(F)(F)C3)nnc12 [Example 213, 3-(3,3-difluorocyclohexyl) [1,2,4]triazolo[4,3-a]pyrazin-8-amine] |  | 330 |  | 
Nc1ncnc2c(C3CCCCC3)onc12 [Example 253, 3-(cyclohexyl)-isoxazolo[4,3-d]pyrimidin-8-amine] | 7380 | 610 | 3810 | 
